Test: xn = mol fraction of the nth substance listed
Conditions: 101 kPa, Liquid; for viscosity: Falling or rolling sphere viscometry; for speed of sound: Frequency=3 MHz, Sing-around technique in a fixed-path interferometer; for mass density: Vibrating tube method

CCCCCC[n+]1ccn(C)c1.O=S(=O)([N-]S(=O)(=O)C(F)(F)F)C(F)(F)F + CCCO
Conditions | mass density [kg/m3] | speed of sound [m/s] | viscosity [mPa·s]
278.15 K, x1 = 0.048 | 920.02 | 1255.6 | 4.973
278.15 K, x1 = 0.0991 | 1003.18 | 1246.2 | 7.263
278.15 K, x1 = 0.1928 | 1109.95 | 1243.7 | 13.14
278.15 K, x1 = 0.2895 | 1184.1 | 1246.9 | 20.71
278.15 K, x1 = 0.3911 | 1239.44 | 1252 | 30.93
278.15 K, x1 = 0.4877 | 1278.76 | 1256.3 | 44.03
278.15 K, x1 = 0.6028 | 1314.62 | 1261.3 | 63.47
278.15 K, x1 = 0.6999 | 1338.53 | 1265.1 | 87.45
278.15 K, x1 = 0.8016 | 1359.18 | 1268.5 | 117.11
278.15 K, x1 = 0.8999 | 1375.88 | 1271.5 | 155.87
298.15 K, x1 = 0.048 | 903.08 | 1191.5 | 2.872
298.15 K, x1 = 0.0991 | 985.65 | 1186 | 3.917
298.15 K, x1 = 0.1928 | 1091.69 | 1187.7 | 6.538
298.15 K, x1 = 0.2895 | 1165.51 | 1193.5 | 9.707
298.15 K, x1 = 0.3911 | 1220.7 | 1200.4 | 13.78
298.15 K, x1 = 0.4877 | 1259.96 | 1205.8 | 18.59
298.15 K, x1 = 0.6028 | 1295.83 | 1211.8 | 25.71
298.15 K, x1 = 0.6999 | 1319.79 | 1216.2 | 33.17
298.15 K, x1 = 0.8016 | 1340.46 | 1220.1 | 42.83
298.15 K, x1 = 0.8999 | 1357.18 | 1223.3 | 54.58
318.15 K, x1 = 0.048 | 885.86 | 1129.7 | 1.799
318.15 K, x1 = 0.0991 | 967.85 | 1128.2 | 2.374
318.15 K, x1 = 0.1928 | 1073.33 | 1134 | 3.734
318.15 K, x1 = 0.2895 | 1146.9 | 1142.4 | 5.367
318.15 K, x1 = 0.3911 | 1202.04 | 1151 | 7.383
318.15 K, x1 = 0.4877 | 1241.33 | 1157.7 | 9.855
318.15 K, x1 = 0.6028 | 1277.27 | 1164.8 | 13.26
318.15 K, x1 = 0.6999 | 1301.3 | 1169.8 | 16.47
318.15 K, x1 = 0.8016 | 1322.04 | 1174.3 | 20.58
318.15 K, x1 = 0.8999 | 1338.82 | 1178.1 | 25.19
338.15 K, x1 = 0.048 | 868.04 | 1069.2 | 1.203
338.15 K, x1 = 0.0991 | 949.6 | 1071.6 | 1.565
338.15 K, x1 = 0.1928 | 1054.71 | 1081.8 | 2.399
338.15 K, x1 = 0.2895 | 1128.21 | 1092.8 | 3.401
338.15 K, x1 = 0.3911 | 1183.4 | 1103.3 | 4.568
338.15 K, x1 = 0.4877 | 1222.81 | 1111.4 | 5.928
338.15 K, x1 = 0.6028 | 1258.9 | 1119.7 | 7.803
338.15 K, x1 = 0.6999 | 1283.03 | 1125.6 | 9.596
338.15 K, x1 = 0.8016 | 1303.87 | 1130.8 | 11.71
338.15 K, x1 = 0.8999 | 1320.72 | 1135.3 | 13.92

CCCC[n+]1ccn(C)c1.O=S(=O)([N-]S(=O)(=O)C(F)(F)F)C(F)(F)F + CCCO
Conditions | mass density [kg/m3] | speed of sound [m/s] | viscosity [mPa·s]
278.15 K, x1 = 0.0508 | 926.62 | 1252.2 | 4.722
278.15 K, x1 = 0.0949 | 1002.03 | 1241 | 6.623
278.15 K, x1 = 0.1989 | 1130.78 | 1235.7 | 11.44
278.15 K, x1 = 0.2976 | 1214 | 1239.7 | 16.84
278.15 K, x1 = 0.3912 | 1272.23 | 1245.7 | 22.98
278.15 K, x1 = 0.4852 | 1317.37 | 1250.9 | 31.14
278.15 K, x1 = 0.5929 | 1358.04 | 1256.8 | 42.15
278.15 K, x1 = 0.692 | 1388.04 | 1261.7 | 56.15
278.15 K, x1 = 0.7968 | 1414.14 | 1266.2 | 76.57
278.15 K, x1 = 0.903 | 1436.28 | 1270.3 | 102.44
298.15 K, x1 = 0.0508 | 909.64 | 1188.9 | 2.701
298.15 K, x1 = 0.0949 | 984.4 | 1181.4 | 3.573
298.15 K, x1 = 0.1989 | 1112.17 | 1180.9 | 5.908
298.15 K, x1 = 0.2976 | 1194.92 | 1187.6 | 8.374
298.15 K, x1 = 0.3912 | 1252.93 | 1195.6 | 10.88
298.15 K, x1 = 0.4852 | 1297.96 | 1201.7 | 14.14
298.15 K, x1 = 0.5929 | 1338.58 | 1208.6 | 18.55
298.15 K, x1 = 0.692 | 1368.59 | 1214.5 | 23.83
298.15 K, x1 = 0.7968 | 1394.7 | 1219.5 | 30.51
298.15 K, x1 = 0.903 | 1416.85 | 1224 | 39.95
318.15 K, x1 = 0.0508 | 892.29 | 1127.5 | 1.693
318.15 K, x1 = 0.0949 | 966.47 | 1123.7 | 2.187
318.15 K, x1 = 0.1989 | 1093.43 | 1128.2 | 3.491
318.15 K, x1 = 0.2976 | 1175.83 | 1137.6 | 4.677
318.15 K, x1 = 0.3912 | 1233.7 | 1147.2 | 6.173
318.15 K, x1 = 0.4852 | 1278.71 | 1154.6 | 7.805
318.15 K, x1 = 0.5929 | 1319.36 | 1162.5 | 10.1
318.15 K, x1 = 0.692 | 1349.4 | 1169.2 | 12.76
318.15 K, x1 = 0.7968 | 1375.56 | 1174.9 | 15.78
318.15 K, x1 = 0.903 | 1397.74 | 1180.1 | 19.35
338.15 K, x1 = 0.0508 | 874.3 | – | 1.136
338.15 K, x1 = 0.0519 | – | 1066.7 | –
338.15 K, x1 = 0.0949 | 948.03 | – | 1.457
338.15 K, x1 = 0.1037 | – | 1066.7 | –
338.15 K, x1 = 0.1989 | 1074.44 | – | 2.303
338.15 K, x1 = 0.2013 | – | 1076.8 | –
338.15 K, x1 = 0.2976 | 1156.66 | – | 3.004
338.15 K, x1 = 0.3088 | – | 1089 | –
338.15 K, x1 = 0.3912 | 1214.5 | – | 3.93
338.15 K, x1 = 0.3963 | – | 1100 | –
338.15 K, x1 = 0.4852 | 1259.59 | – | 4.908
338.15 K, x1 = 0.4918 | – | 1109.1 | –
338.15 K, x1 = 0.5723 | – | 1118.3 | –
338.15 K, x1 = 0.5929 | 1300.32 | – | 6.258
338.15 K, x1 = 0.692 | 1330.43 | – | 7.446
338.15 K, x1 = 0.7026 | – | 1125.4 | –
338.15 K, x1 = 0.7968 | 1356.65 | – | 9.633
338.15 K, x1 = 0.8055 | – | 1132 | –
338.15 K, x1 = 0.9025 | – | 1137.8 | –
338.15 K, x1 = 0.903 | 1378.89 | – | 11.48

CCn1cc[n+](C)c1.O=S(=O)([N-]S(=O)(=O)C(F)(F)F)C(F)(F)F + CCCO
Conditions | mass density [kg/m3] | speed of sound [m/s] | viscosity [mPa·s]
278.15 K, x1 = 0.4918 | 1372.4 | 1253.1 | 20.94
278.15 K, x1 = 0.5723 | 1410.18 | 1259.6 | 25.39
278.15 K, x1 = 0.7026 | 1459.58 | 1268.7 | 34.81
278.15 K, x1 = 0.8055 | 1491.11 | 1274.9 | 44.9
278.15 K, x1 = 0.9025 | 1516.35 | 1280 | 56.99
298.15 K, x1 = 0.0519 | 914.24 | 1184.8 | 2.639
298.15 K, x1 = 0.1037 | 1005.11 | 1175.1 | 3.53
298.15 K, x1 = 0.2013 | 1134.16 | 1175.8 | 5.134
298.15 K, x1 = 0.3088 | 1235.5 | 1186.2 | 6.891
298.15 K, x1 = 0.3963 | 1297.78 | 1195.6 | 8.358
298.15 K, x1 = 0.4918 | 1352.18 | 1205 | 10.6
298.15 K, x1 = 0.5723 | 1389.87 | 1212.2 | 12.63
298.15 K, x1 = 0.7026 | 1439.2 | 1222.2 | 16.89
298.15 K, x1 = 0.8055 | 1470.7 | 1228.9 | 21.07
298.15 K, x1 = 0.9025 | 1495.92 | 1234.3 | 25.97
318.15 K, x1 = 0.0519 | 896.79 | 1124.1 | 1.656
318.15 K, x1 = 0.1037 | 986.91 | 1119.3 | 2.083
318.15 K, x1 = 0.2013 | 1115.01 | 1124.8 | 2.938
318.15 K, x1 = 0.3088 | 1215.8 | 1137.8 | 3.978
318.15 K, x1 = 0.3963 | 1277.87 | 1148.3 | 4.994
318.15 K, x1 = 0.4918 | 1332.15 | 1158.9 | 6.245
318.15 K, x1 = 0.5723 | 1369.81 | 1166.8 | 7.454
318.15 K, x1 = 0.7026 | 1419.12 | 1177.7 | 9.792
318.15 K, x1 = 0.8055 | 1450.62 | 1185 | 11.97
318.15 K, x1 = 0.9025 | 1475.84 | 1191 | 14.58
338.15 K, x1 = 0.0519 | 878.72 | 1064.4 | 1.117
338.15 K, x1 = 0.1037 | 968.2 | 1064.1 | 1.389
338.15 K, x1 = 0.2013 | 1095.6 | 1074.6 | 1.956
338.15 K, x1 = 0.3088 | 1196.06 | 1090.4 | 2.656
338.15 K, x1 = 0.3963 | 1258.02 | 1102.6 | 3.333
338.15 K, x1 = 0.4918 | 1312.29 | 1114.4 | 4.156
338.15 K, x1 = 0.5723 | 1349.96 | 1123.2 | 4.931
338.15 K, x1 = 0.7026 | 1399.28 | 1135.3 | 6.395
338.15 K, x1 = 0.8055 | 1430.83 | 1143.2 | 7.634
338.15 K, x1 = 0.9025 | 1456.06 | 1149.7 | 9.201

Source: the NIST ThermoML archive (doi:10.1021/acs.jced.5b00181)
